The NIST ThermoML archive (doi:10.1016/j.jct.2011.08.016)
± gives the expanded uncertainty stated by the source.

Assay: xn = mol fraction of the nth substance listed
Details: Liquid, Vibrating tube method

CCCCCCCCCC [decane] + CCCCCCC
mass density (333.12 K, 4000 kPa, x2 = 0.0531): 701.18 ± 0.43 kg/m3 | mass density (333.12 K, 4000 kPa, x2 = 0.777): 668.42 ± 0.44 kg/m3 | mass density (333.12 K, 5000 kPa, x2 = 0.0531): 702.16 ± 0.43 kg/m3 | mass density (333.12 K, 5000 kPa, x2 = 0.777): 669.49 ± 0.45 kg/m3 | mass density (333.12 K, 6000 kPa, x2 = 0.0531): 703.1 ± 0.43 kg/m3 | mass density (333.12 K, 6000 kPa, x2 = 0.777): 670.55 ± 0.46 kg/m3 | mass density (333.12 K, 7000 kPa, x2 = 0.0531): 704.05 ± 0.44 kg/m3 | mass density (333.12 K, 7000 kPa, x2 = 0.777): 671.62 ± 0.46 kg/m3 | mass density (333.12 K, 8000 kPa, x2 = 0.0531): 704.99 ± 0.44 kg/m3 | mass density (333.12 K, 8000 kPa, x2 = 0.777): 672.68 ± 0.47 kg/m3 | mass density (333.12 K, 9000 kPa, x2 = 0.0531): 705.9 ± 0.45 kg/m3 | mass density (333.12 K, 9000 kPa, x2 = 0.777): 673.73 ± 0.47 kg/m3 | mass density (333.12 K, 10000 kPa, x2 = 0.0531): 706.8 ± 0.45 kg/m3 | mass density (333.12 K, 10000 kPa, x2 = 0.777): 674.77 ± 0.48 kg/m3 | mass density (333.12 K, 10990 kPa, x2 = 0.0531): 707.69 ± 0.46 kg/m3 | mass density (333.12 K, 10990 kPa, x2 = 0.777): 675.8 ± 0.49 kg/m3 | mass density (333.12 K, 12000 kPa, x2 = 0.0531): 708.56 ± 0.47 kg/m3 | mass density (333.12 K, 12000 kPa, x2 = 0.777): 676.81 ± 0.49 kg/m3 | mass density (333.12 K, 13000 kPa, x2 = 0.0531): 709.43 ± 0.47 kg/m3 | mass density (333.12 K, 13000 kPa, x2 = 0.777): 677.81 ± 0.5 kg/m3 | mass density (333.12 K, 14000 kPa, x2 = 0.0531): 710.28 ± 0.48 kg/m3 | mass density (333.12 K, 14000 kPa, x2 = 0.777): 678.79 ± 0.51 kg/m3 | mass density (333.12 K, 15000 kPa, x2 = 0.0531): 711.14 ± 0.48 kg/m3 | mass density (333.12 K, 15000 kPa, x2 = 0.777): 679.76 ± 0.51 kg/m3 | mass density (333.12 K, 16000 kPa, x2 = 0.0531): 711.96 ± 0.49 kg/m3 | mass density (333.12 K, 16000 kPa, x2 = 0.777): 680.71 ± 0.52 kg/m3 | mass density (333.12 K, 17000 kPa, x2 = 0.0531): 712.79 ± 0.49 kg/m3 | mass density (333.12 K, 17000 kPa, x2 = 0.777): 681.65 ± 0.53 kg/m3 | mass density (333.12 K, 18000 kPa, x2 = 0.0531): 713.6 ± 0.5 kg/m3 | mass density (333.12 K, 18000 kPa, x2 = 0.777): 682.58 ± 0.54 kg/m3 | mass density (333.12 K, 19000 kPa, x2 = 0.0531): 714.39 ± 0.51 kg/m3 | mass density (333.12 K, 19000 kPa, x2 = 0.777): 683.49 ± 0.54 kg/m3 | mass density (333.12 K, 20000 kPa, x2 = 0.0531): 715.18 ± 0.51 kg/m3 | mass density (333.12 K, 20000 kPa, x2 = 0.777): 684.39 ± 0.55 kg/m3 | mass density (333.12 K, 21000 kPa, x2 = 0.0531): 715.96 ± 0.52 kg/m3 | mass density (333.12 K, 21000 kPa, x2 = 0.777): 685.27 ± 0.56 kg/m3 | mass density (333.12 K, 22000 kPa, x2 = 0.0531): 716.72 ± 0.52 kg/m3 | mass density (333.12 K, 22000 kPa, x2 = 0.777): 686.1 ± 0.56 kg/m3 | mass density (333.12 K, 23000 kPa, x2 = 0.0531): 717.46 ± 0.53 kg/m3 | mass density (333.12 K, 23000 kPa, x2 = 0.777): 686.9 ± 0.57 kg/m3 | mass density (333.12 K, 24000 kPa, x2 = 0.0531): 718.21 ± 0.54 kg/m3 | mass density (333.12 K, 24000 kPa, x2 = 0.777): 687.68 ± 0.58 kg/m3 | mass density (333.12 K, 25000 kPa, x2 = 0.0531): 718.95 ± 0.54 kg/m3 | mass density (333.12 K, 25000 kPa, x2 = 0.777): 688.47 ± 0.59 kg/m3 | mass density (333.13 K, 1000 kPa, x2 = 0.952): 653.95 ± 0.43 kg/m3 | mass density (333.13 K, 2000 kPa, x2 = 0.952): 655.14 ± 0.44 kg/m3 | mass density (333.13 K, 3000 kPa, x2 = 0.952): 656.33 ± 0.44 kg/m3 | mass density (333.13 K, 4000 kPa, x2 = 0.952): 657.51 ± 0.45 kg/m3 | mass density (333.13 K, 5000 kPa, x2 = 0.952): 658.67 ± 0.46 kg/m3 | mass density (333.13 K, 6000 kPa, x2 = 0.952): 659.82 ± 0.46 kg/m3 | mass density (333.13 K, 7000 kPa, x2 = 0.952): 660.95 ± 0.47 kg/m3 | mass density (333.13 K, 8000 kPa, x2 = 0.952): 662.06 ± 0.48 kg/m3 | mass density (333.13 K, 9000 kPa, x2 = 0.952): 663.16 ± 0.48 kg/m3 | mass density (333.13 K, 10000 kPa, x2 = 0.952): 664.24 ± 0.49 kg/m3 | mass density (333.13 K, 10990 kPa, x2 = 0.952): 665.3 ± 0.5 kg/m3 | mass density (333.13 K, 12000 kPa, x2 = 0.952): 666.34 ± 0.5 kg/m3 | mass density (333.13 K, 13000 kPa, x2 = 0.952): 667.37 ± 0.51 kg/m3 | mass density (333.13 K, 14000 kPa, x2 = 0.952): 668.38 ± 0.52 kg/m3 | mass density (333.13 K, 15000 kPa, x2 = 0.952): 669.39 ± 0.52 kg/m3 | mass density (333.13 K, 16000 kPa, x2 = 0.952): 670.37 ± 0.53 kg/m3 | mass density (333.13 K, 17000 kPa, x2 = 0.952): 671.33 ± 0.54 kg/m3 | mass density (333.13 K, 18000 kPa, x2 = 0.952): 672.29 ± 0.55 kg/m3 | mass density (333.13 K, 19000 kPa, x2 = 0.952): 673.23 ± 0.55 kg/m3 | mass density (333.13 K, 20000 kPa, x2 = 0.952): 674.14 ± 0.56 kg/m3 | mass density (333.13 K, 21000 kPa, x2 = 0.952): 675.04 ± 0.57 kg/m3 | mass density (333.13 K, 22000 kPa, x2 = 0.952): 675.93 ± 0.58 kg/m3 | mass density (333.13 K, 23000 kPa, x2 = 0.952): 676.79 ± 0.59 kg/m3 | mass density (333.13 K, 24000 kPa, x2 = 0.952): 677.64 ± 0.59 kg/m3 | mass density (333.13 K, 25000 kPa, x2 = 0.952): 678.45 ± 0.6 kg/m3 | mass density (333.14 K, 1000 kPa, x2 = 0.2594): 690.74 ± 0.42 kg/m3 | mass density (333.14 K, 2000 kPa, x2 = 0.2594): 691.66 ± 0.42 kg/m3 | mass density (333.14 K, 3000 kPa, x2 = 0.2594): 692.62 ± 0.43 kg/m3 | mass density (333.14 K, 4000 kPa, x2 = 0.2594): 693.57 ± 0.43 kg/m3 | mass density (333.14 K, 5000 kPa, x2 = 0.2594): 694.49 ± 0.43 kg/m3 | mass density (333.14 K, 6000 kPa, x2 = 0.2594): 695.43 ± 0.44 kg/m3 | mass density (333.14 K, 7000 kPa, x2 = 0.2594): 696.4 ± 0.44 kg/m3 | mass density (333.14 K, 8000 kPa, x2 = 0.2594): 697.34 ± 0.45 kg/m3 | mass density (333.14 K, 9000 kPa, x2 = 0.2594): 698.3 ± 0.45 kg/m3 | mass density (333.14 K, 10000 kPa, x2 = 0.2594): 699.23 ± 0.46 kg/m3 | mass density (333.14 K, 10990 kPa, x2 = 0.2594): 700.16 ± 0.47 kg/m3 | mass density (333.14 K, 12000 kPa, x2 = 0.2594): 701.08 ± 0.47 kg/m3 | mass density (333.14 K, 13000 kPa, x2 = 0.2594): 701.98 ± 0.48 kg/m3 | mass density (333.14 K, 14000 kPa, x2 = 0.2594): 702.87 ± 0.48 kg/m3 | mass density (333.14 K, 15000 kPa, x2 = 0.2594): 703.75 ± 0.49 kg/m3 | mass density (333.14 K, 16000 kPa, x2 = 0.2594): 704.61 ± 0.5 kg/m3 | mass density (333.14 K, 17000 kPa, x2 = 0.2594): 705.47 ± 0.5 kg/m3 | mass density (333.14 K, 18000 kPa, x2 = 0.2594): 706.33 ± 0.51 kg/m3 | mass density (333.14 K, 19000 kPa, x2 = 0.2594): 707.13 ± 0.51 kg/m3 | mass density (333.14 K, 20000 kPa, x2 = 0.2594): 707.94 ± 0.52 kg/m3 | mass density (333.14 K, 21000 kPa, x2 = 0.2594): 708.75 ± 0.53 kg/m3 | mass density (333.14 K, 22000 kPa, x2 = 0.2594): 709.53 ± 0.53 kg/m3 | mass density (333.14 K, 23000 kPa, x2 = 0.2594): 710.3 ± 0.54 kg/m3 | mass density (333.14 K, 24000 kPa, x2 = 0.2594): 711.03 ± 0.55 kg/m3 | mass density (333.14 K, 25000 kPa, x2 = 0.2594): 711.74 ± 0.55 kg/m3
